Data from ChEMBL document CHEMBL3885861, “Open TG-GATES”.

Species: Rattus norvegicus
Assay: Open TG-GATES - Regimen: Single
Type: toxicity, organism-based, Sprague-Dawley
Design: regimen Single, gender Male, age 6 weeks
Conditions: in vivo, po, route gavage; for APTT / Bas / Eos / Fbg / Hb / Ht / Lym / MCH / MCHC / MCV / Mono / Neu / PT / Plat / RBC / Ret / WBC: tissue Blood; for KIDNEY_L / KIDNEY_R / KIDNEY_TOTAL: tissue Kidney; for LIVER: tissue Liver; for A/G / ALP / ALT / AST / BUN / CRE / Ca / Cl / DBIL / GLC / IP / K / LDH / Na / PL / RALB / TBIL / TC / TG / TP / gamma-GTP: tissue Plasma
[1] = 1000 mg/kg, 3 h, dose level Middle
[2] = 1000 mg/kg, 6 h, dose level Middle
[3] = 1000 mg/kg, 9 h, dose level Middle
[4] = 1000 mg/kg, 24 h, dose level Middle
[5] = 2000 mg/kg, 3 h, dose level High
[6] = 2000 mg/kg, 6 h, dose level High
[7] = 2000 mg/kg, 9 h, dose level High
[8] = 2000 mg/kg, 24 h, dose level High

## CCN1CCCC1CNC(=O)c1cc(S(N)(=O)=O)ccc1OC (centres undefined) [SULPIRIDE]
[1]
  TERMINAL_BW: 201.4 g
  APTT: 17.3 s
  Bas: 0%
  Eos: 0.6%
  Fbg: 253.4 mg/dL
  Hb: 12.6 g/dL
  Ht: 39.6%
  Lym: 78.4%
  MCH: 20.8 pg
  MCHC: 31.8%
  MCV: 65.2 fL
  Mono: 3.4%
  Neu: 16.8%
  PT: 13.6 s
  Plat: 109.3 x10_4/uL
  RBC: 608 x10_4/ul
  Ret: 8.1%
  WBC: 83.5 x10_2/uL
  KIDNEY_L: 0.9 g
  KIDNEY_R: 0.9 g
  KIDNEY_TOTAL: 1.8 g
  LIVER: 9.2 g
  A/G: 0.9
  ALP: 1375.8 IU/L
  ALT: 36.6 IU/L
  AST: 74.2 IU/L
  BUN: 10.4 mg/dL
  CRE: 0.2 mg/dL
  Ca: 10.8 mg/dL
  Cl: 106.6 meq/L
  DBIL: 0.004 mg/dL
  GLC: 169.8 mg/dL
  IP: 8.2 mg/dL
  K: 4 meq/L
  LDH: 116.6 IU/L
  Na: 142.6 meq/L
  PL: 126.2 mg/dL
  RALB: 2.4 g/dL
  TBIL: 0.068 mg/dL
  TC: 63.4 mg/dL
  TG: 54.2 mg/dL
  TP: 5.1 g/dL
  gamma-GTP: 1.8 IU/L
[2]
  TERMINAL_BW: 201.9 g
  APTT: 18.2 s
  Bas: 0.2%
  Eos: 0.8%
  Fbg: 279.2 mg/dL
  Hb: 13.1 g/dL
  Ht: 40.9%
  Lym: 79.6%
  MCH: 20.9 pg
  MCHC: 32.1%
  MCV: 65.2 fL
  Mono: 3%
  Neu: 15.8%
  PT: 13.5 s
  Plat: 123.7 x10_4/uL
  RBC: 628.2 x10_4/ul
  Ret: 8.4%
  WBC: 61.1 x10_2/uL
  KIDNEY_L: 0.9 g
  KIDNEY_R: 0.9 g
  KIDNEY_TOTAL: 1.7 g
  LIVER: 8.4 g
  A/G: 0.9
  ALP: 1420 IU/L
  ALT: 35.2 IU/L
  AST: 69.8 IU/L
  BUN: 8 mg/dL
  CRE: 0.2 mg/dL
  Ca: 10.7 mg/dL
  Cl: 107.4 meq/L
  DBIL: 0.006 mg/dL
  GLC: 175 mg/dL
  IP: 8.9 mg/dL
  K: 4.1 meq/L
  LDH: 101.8 IU/L
  Na: 142 meq/L
  PL: 137.8 mg/dL
  RALB: 2.4 g/dL
  TBIL: 0.07 mg/dL
  TC: 76.2 mg/dL
  TG: 45.6 mg/dL
  TP: 5.1 g/dL
  gamma-GTP: 1.4 IU/L
[3]
  TERMINAL_BW: 201.7 g
  APTT: 17.2 s
  Bas: 0%
  Eos: 1%
  Fbg: 308 mg/dL
  Hb: 13.7 g/dL
  Ht: 43%
  Lym: 71.2%
  MCH: 20.7 pg
  MCHC: 31.8%
  MCV: 65 fL
  Mono: 3.6%
  Neu: 23.8%
  PT: 13.3 s
  Plat: 131.4 x10_4/uL
  RBC: 661 x10_4/ul
  Ret: 7.7%
  WBC: 64.3 x10_2/uL
  KIDNEY_L: 0.9 g
  KIDNEY_R: 0.9 g
  KIDNEY_TOTAL: 1.8 g
  LIVER: 8.3 g
  A/G: 0.9
  ALP: 1435.8 IU/L
  ALT: 28.6 IU/L
  AST: 63.2 IU/L
  BUN: 7.6 mg/dL
  CRE: 0.2 mg/dL
  Ca: 10.7 mg/dL
  Cl: 107.6 meq/L
  DBIL: 0.002 mg/dL
  GLC: 178.2 mg/dL
  IP: 9.7 mg/dL
  K: 4 meq/L
  LDH: 106.2 IU/L
  Na: 141.6 meq/L
  PL: 151 mg/dL
  RALB: 2.5 g/dL
  TBIL: 0.066 mg/dL
  TC: 83.8 mg/dL
  TG: 65.2 mg/dL
  TP: 5.3 g/dL
  gamma-GTP: 1.2 IU/L
[4]
  TERMINAL_BW: 214.6 g
  APTT: 17.3 s
  Bas: 0%
  Eos: 1%
  Fbg: 290.8 mg/dL
  Hb: 13.9 g/dL
  Ht: 42.1%
  Lym: 77.8%
  MCH: 20.7 pg
  MCHC: 32.9%
  MCV: 62.9 fL
  Mono: 2.4%
  Neu: 18.4%
  PT: 12.8 s
  Plat: 123 x10_4/uL
  RBC: 670.2 x10_4/ul
  Ret: 6.7%
  WBC: 66.8 x10_2/uL
  KIDNEY_L: 0.9 g
  KIDNEY_R: 0.9 g
  KIDNEY_TOTAL: 1.9 g
  LIVER: 9.4 g
  A/G: 0.9
  ALP: 1599.4 IU/L
  ALT: 46 IU/L
  AST: 67.6 IU/L
  BUN: 17.2 mg/dL
  CRE: 0.2 mg/dL
  Ca: 11.2 mg/dL
  Cl: 105.2 meq/L
  DBIL: 0.018 mg/dL
  GLC: 178.8 mg/dL
  IP: 8.6 mg/dL
  K: 4.4 meq/L
  LDH: 145.4 IU/L
  Na: 142 meq/L
  PL: 157.6 mg/dL
  RALB: 2.6 g/dL
  TBIL: 0.056 mg/dL
  TC: 83 mg/dL
  TG: 112.4 mg/dL
  TP: 5.7 g/dL
  gamma-GTP: 1 IU/L
[5]
  TERMINAL_BW: 201.8 g
  APTT: 18.6 s
  Bas: 0%
  Eos: 0.6%
  Fbg: 244.2 mg/dL
  Hb: 12.7 g/dL
  Ht: 39.6%
  Lym: 82%
  MCH: 21 pg
  MCHC: 32.2%
  MCV: 65.4 fL
  Mono: 3.2%
  Neu: 13%
  PT: 13.9 s
  Plat: 117.9 x10_4/uL
  RBC: 606.4 x10_4/ul
  Ret: 7.7%
  WBC: 82.3 x10_2/uL
  KIDNEY_L: 0.9 g
  KIDNEY_R: 0.9 g
  KIDNEY_TOTAL: 1.8 g
  LIVER: 9 g
  A/G: 0.9
  ALP: 1446.6 IU/L
  ALT: 42 IU/L
  AST: 74.6 IU/L
  BUN: 9.4 mg/dL
  CRE: 0.2 mg/dL
  Ca: 10.6 mg/dL
  Cl: 105.4 meq/L
  DBIL: 0.004 mg/dL
  GLC: 174 mg/dL
  IP: 8.8 mg/dL
  K: 3.9 meq/L
  LDH: 90.2 IU/L
  Na: 143.4 meq/L
  PL: 119.6 mg/dL
  RALB: 2.3 g/dL
  TBIL: 0.068 mg/dL
  TC: 57.6 mg/dL
  TG: 55 mg/dL
  TP: 4.9 g/dL
  gamma-GTP: 1.2 IU/L
[6]
  TERMINAL_BW: 199.5 g
  APTT: 17 s
  Bas: 0%
  Eos: 0.8%
  Fbg: 273 mg/dL
  Hb: 13 g/dL
  Ht: 40.9%
  Lym: 76.6%
  MCH: 20.9 pg
  MCHC: 31.9%
  MCV: 65.6 fL
  Mono: 2.6%
  Neu: 19%
  PT: 13.4 s
  Plat: 121.6 x10_4/uL
  RBC: 623.8 x10_4/ul
  Ret: 7.6%
  WBC: 63.1 x10_2/uL
  KIDNEY_L: 0.9 g
  KIDNEY_R: 0.9 g
  KIDNEY_TOTAL: 1.7 g
  LIVER: 8.1 g
  A/G: 0.9
  ALP: 1306.2 IU/L
  ALT: 39.6 IU/L
  AST: 74.2 IU/L
  BUN: 7.2 mg/dL
  CRE: 0.1 mg/dL
  Ca: 10.5 mg/dL
  Cl: 106.4 meq/L
  DBIL: 0 mg/dL
  GLC: 163.6 mg/dL
  IP: 9.1 mg/dL
  K: 4 meq/L
  LDH: 92 IU/L
  Na: 142.4 meq/L
  PL: 133.2 mg/dL
  RALB: 2.4 g/dL
  TBIL: 0.07 mg/dL
  TC: 72.2 mg/dL
  TG: 35.2 mg/dL
  TP: 5.2 g/dL
  gamma-GTP: 1 IU/L
[7]
  TERMINAL_BW: 199.2 g
  APTT: 19.7 s
  Bas: 0%
  Eos: 1%
  Fbg: 296.6 mg/dL
  Hb: 13.3 g/dL
  Ht: 41.7%
  Lym: 79.6%
  MCH: 20.1 pg
  MCHC: 32%
  MCV: 62.9 fL
  Mono: 2.2%
  Neu: 16.6%
  PT: 13.2 s
  Plat: 117.3 x10_4/uL
  RBC: 663.8 x10_4/ul
  Ret: 7.5%
  WBC: 63.8 x10_2/uL
  KIDNEY_L: 0.9 g
  KIDNEY_R: 0.9 g
  KIDNEY_TOTAL: 1.8 g
  LIVER: 7.5 g
  A/G: 0.9
  ALP: 1349.6 IU/L
  ALT: 30.8 IU/L
  AST: 67.4 IU/L
  BUN: 7.4 mg/dL
  CRE: 0.1 mg/dL
  Ca: 10.5 mg/dL
  Cl: 108.4 meq/L
  DBIL: 0.008 mg/dL
  GLC: 165.6 mg/dL
  IP: 10.1 mg/dL
  K: 4.3 meq/L
  LDH: 88.2 IU/L
  Na: 142 meq/L
  PL: 133.8 mg/dL
  RALB: 2.5 g/dL
  TBIL: 0.076 mg/dL
  TC: 73 mg/dL
  TG: 29 mg/dL
  TP: 5.3 g/dL
  gamma-GTP: 1.6 IU/L
[8]
  TERMINAL_BW: 209.1 g
  APTT: 16.6 s
  Bas: 0.2%
  Eos: 0.8%
  Fbg: 301.4 mg/dL
  Hb: 13.8 g/dL
  Ht: 42.8%
  Lym: 79.2%
  MCH: 20.4 pg
  MCHC: 32.3%
  MCV: 63.2 fL
  Mono: 3.6%
  Neu: 15.4%
  PT: 12.7 s
  Plat: 120.6 x10_4/uL
  RBC: 678.6 x10_4/ul
  Ret: 7%
  WBC: 97.3 x10_2/uL
  KIDNEY_L: 0.9 g
  KIDNEY_R: 0.9 g
  KIDNEY_TOTAL: 1.9 g
  LIVER: 9 g
  A/G: 0.9
  ALP: 1595.2 IU/L
  ALT: 40.6 IU/L
  AST: 64.8 IU/L
  BUN: 17.4 mg/dL
  CRE: 0.2 mg/dL
  Ca: 11.3 mg/dL
  Cl: 103.8 meq/L
  DBIL: 0.012 mg/dL
  GLC: 179.8 mg/dL
  IP: 9.3 mg/dL
  K: 4.8 meq/L
  LDH: 101 IU/L
  Na: 141.4 meq/L
  PL: 149.8 mg/dL
  RALB: 2.7 g/dL
  TBIL: 0.064 mg/dL
  TC: 86.2 mg/dL
  TG: 77 mg/dL
  TP: 5.7 g/dL
  gamma-GTP: 1 IU/L
